Where “and” joins values, the source holds several entries; their conditions need not be identical. Equal values may be shown once. Toxic doses and inconclusive results are not listed.
Tested on: L1210 leukemia ip in BDF1 mice, survival T/C
Experiment: NCI In Vivo Anticancer Drug Screen. Data for tumor model L1210 Leukemia (intraperitoneal) in B6D2F1 (BDF1) mice
Details: endpoint: mean survival time, higher = longer survival
Outline: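 Mice bearing the transplanted tumor received compound or vehicle. Survival of the treated group was divided by that of the vehicle-treated control group to give the ratio.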

[1] = dose: 100.0 mg/kg/injection, schedule: Q01DX009 (ip), vehicle: Klucel (hydroxypropylcellulose) (HPC)
[2] = dose: 100.0 mg/kg/injection, schedule: Q04DX003 (ip), vehicle: Klucel (hydroxypropylcellulose) (HPC)
[3] = dose: 200.0 mg/kg/injection, schedule: Q01DX009 (ip), vehicle: Klucel (hydroxypropylcellulose) (HPC)
[4] = dose: 200.0 mg/kg/injection, schedule: Q04DX003 (ip), vehicle: Klucel (hydroxypropylcellulose) (HPC)
[5] = dose: 400.0 mg/kg/injection, schedule: Q01DX009 (ip), vehicle: Klucel (hydroxypropylcellulose) (HPC)
[6] = dose: 400.0 mg/kg/injection, schedule: Q04DX003 (ip), vehicle: Klucel (hydroxypropylcellulose) (HPC)
[7] = dose: 100.0 mg/kg/injection, schedule: Q01DX001 (ip), vehicle: saline
[8] = dose: 200.0 mg/kg/injection, schedule: Q01DX001 (ip), vehicle: saline
[9] = dose: 100.0 mg/kg/injection, schedule: Q04DX003 (ip), vehicle: saline
[10] = dose: 100.0 mg/kg/injection, schedule: Q04DX003 (ip), vehicle: saline with Tween-80
[11] = dose: 200.0 mg/kg/injection, schedule: Q04DX003 (ip), vehicle: saline with Tween-80
[12] = dose: 400.0 mg/kg/injection, schedule: Q04DX003 (ip), vehicle: saline with Tween-80
[13] = dose: 100.0 mg/kg/injection, schedule: Q04DX002 (ip), vehicle: Klucel (hydroxypropylcellulose) (HPC)
[14] = dose: 200.0 mg/kg/injection, schedule: Q04DX002 (ip), vehicle: Klucel (hydroxypropylcellulose) (HPC)
[15] = dose: 400.0 mg/kg/injection, schedule: Q04DX002 (ip), vehicle: Klucel (hydroxypropylcellulose) (HPC)
[16] = dose: 50.0 mg/kg/injection, schedule: Q01DX001 (ip), vehicle: other
[17] = dose: 100.0 mg/kg/injection, schedule: Q01DX001 (ip), vehicle: other
[18] = dose: 200.0 mg/kg/injection, schedule: Q01DX001 (ip), vehicle: other
[19] = dose: 50.0 mg/kg/injection, schedule: Q04DX002 (ip), vehicle: Klucel (hydroxypropylcellulose) (HPC)
[20] = dose: 100.0 mg/kg/injection, schedule: Q04DX002 (ip), vehicle: saline
[21] = dose: 100.0 mg/kg/injection, schedule: Q01DX009 (ip), vehicle: saline with Tween-80
[22] = dose: 200.0 mg/kg/injection, schedule: Q01DX009 (ip), vehicle: saline with Tween-80
[23] = dose: 75.0 mg/kg/injection, schedule: Q01DX001 (ip), vehicle: carboxymethylcellulose (CMC)

c1ccc2c(c1)NC1(CCCCC1)S2
T/C [1]: 99 % of control | T/C [2]: 104 % of control | T/C [3]: 99 % of control | T/C [4]: 91 % of control | T/C [5]: 91 % of control | T/C [6]: 93 % of control

CC1CC(=O)Oc2cc(O)c(O)cc21 (stereo not drawn)
T/C [7]: 101 % of control | T/C [8]: 95 % of control | T/C (dose: 400.0 mg/kg/injection, schedule: Q01DX001 (ip), vehicle: saline): 95 % of control

CC1(C#N)CC/C(=C\c2ccc3c(c2)OCO3)C(=O)C1 (stereo not drawn)
T/C [9]: 96 % of control | T/C (dose: 200.0 mg/kg/injection, schedule: Q04DX003 (ip), vehicle: saline): 91 % of control | T/C (dose: 400.0 mg/kg/injection, schedule: Q04DX003 (ip), vehicle: saline): 107 % of control

C=CCOC(=O)Nc1cccc(OC(=O)NC(C)(C)C)c1
T/C [10]: 105 % of control | T/C [11]: 99 % of control | T/C [12]: 98 % of control

Cc1ccc(NC(=O)COc2ccccc2)c(C)c1
T/C [13]: 107 % of control | T/C [14]: 104 % of control | T/C [15]: 100 % of control

CCOc1ccccc1NC(=O)Nc1ccccc1C(F)(F)F
T/C [1]: 94 % of control | T/C [3]: 96 % of control | T/C [5]: 91 % of control

Nc1ccn(C2OC(COC(=O)C34CC5CC(CC(C5)C3)C4)C(O)C2O)c(=O)n1 (stereo not drawn)
T/C [16]: 156 % of control and 170 % of control | T/C [17]: 165 % of control and 248 % of control | T/C [18]: 213 % of control and 300 % of control

CC(=O)C(Sc1ccccc1[N+](=O)[O-])C(C)=O.[Co]
T/C [16]: 92 % of control | T/C [17]: 92 % of control | T/C [18]: 92 % of control | T/C (dose: 400.0 mg/kg/injection, schedule: Q01DX001 (ip), vehicle: other): 100 % of control

NC(=O)N1C(=O)C=CC1=O
T/C [19]: 96 % of control | T/C [1]: 105 % of control | T/C [13]: 100 % of control | T/C [3]: 91 % of control

O=C1C=CC(=O)N1CCCCN1C(=O)C=CC1=O
T/C (dose: 11.1 mg/kg/injection, schedule: Q01DX Z (ip), vehicle: methylcellulose (MC)): 96 % of control | T/C (dose: 16.6 mg/kg/injection, schedule: Q01DX Z (ip), vehicle: methylcellulose (MC)): 106 % of control | T/C (dose: 25.0 mg/kg/injection, schedule: Q01DX Z (ip), vehicle: methylcellulose (MC)): 93 % of control

CCOC(=O)C(C)(O)C1(Cl)CCC(C(C)(C)C)CC1 (stereo not drawn)
T/C [20]: 103 % of control | T/C (dose: 200.0 mg/kg/injection, schedule: Q04DX002 (ip), vehicle: saline): 103 % of control | T/C (dose: 400.0 mg/kg/injection, schedule: Q04DX002 (ip), vehicle: saline): 100 % of control

CCCCNCC#N
T/C (dose: 50.0 mg/kg/injection, schedule: Q01DX001 (ip), vehicle: saline): 110 % of control

CC(=O)CC(=O)Nc1ccc2ccccc2c1
T/C [1]: 98 % of control | T/C [2]: 92 % of control | T/C [4]: 97 % of control | T/C [6]: 92 % of control

CC(NC(=O)CCN)C(=O)O (stereo not drawn)
T/C (dose: 25.0 mg/kg/injection, schedule: Q04DX002 (ip), vehicle: saline): 96 % of control | T/C (dose: 50.0 mg/kg/injection, schedule: Q04DX002 (ip), vehicle: saline): 89 % of control | T/C [20]: 102 % of control

Cc1cc2oc(=O)c3c(c2c(O)c1CN1CCN(C)CC1)CCCC3
T/C [7]: 95 % of control | T/C [8]: 92 % of control

COc1ccc(-n2c(=O)c(N=Nc3ccc(Br)cc3)c(O)n(-c3ccc(Cl)cc3)c2=S)cc1
T/C (dose: 37.5 mg/kg/injection, schedule: Q01DX001 (ip), vehicle: Klucel (hydroxypropylcellulose) (HPC)): 102 % of control | T/C (dose: 75.0 mg/kg/injection, schedule: Q01DX001 (ip), vehicle: Klucel (hydroxypropylcellulose) (HPC)): 101 % of control | T/C (dose: 150.0 mg/kg/injection, schedule: Q01DX001 (ip), vehicle: Klucel (hydroxypropylcellulose) (HPC)): 104 % of control

O=C(O)c1ccc([N+](=O)[O-])o1
T/C [21]: 89 % of control | T/C (dose: 100.0 mg/kg/injection, schedule: Q04DX003 (ip), vehicle: other): 100 % of control | T/C [22]: 97 % of control | T/C (dose: 200.0 mg/kg/injection, schedule: Q04DX003 (ip), vehicle: other): 96 % of control

CC(=O)CSc1nc2ccccc2s1
T/C (dose: 50.0 mg/kg/injection, schedule: Q01DX009 (ip), vehicle: Klucel (hydroxypropylcellulose) (HPC)): 95 % of control | T/C [1]: 104 % of control | T/C [3]: 111 % of control

NC(=S)N/N=C/c1cccn1Cc1cc2c(cc1[N+](=O)[O-])OCO2
T/C (dose: 25.0 mg/kg/injection, schedule: Q04DX002 (ip), vehicle: Klucel (hydroxypropylcellulose) (HPC)): 100 % of control | T/C [19]: 96 % of control | T/C [13]: 104 % of control

C/C=C/CC1(CCC(C)C)C(=O)NC(=O)NC1=O
T/C (dose: 75.0 mg/kg/injection, schedule: Q01DX001 (ip), vehicle: acetone): 95 % of control | T/C (dose: 75.0 mg/kg/injection, schedule: Q01DX001 (ip), vehicle: other): 101 % of control | T/C (dose: 150.0 mg/kg/injection, schedule: Q01DX001 (ip), vehicle: acetone): 101 % of control | T/C (dose: 150.0 mg/kg/injection, schedule: Q01DX001 (ip), vehicle: other): 101 % of control | T/C (dose: 300.0 mg/kg/injection, schedule: Q01DX001 (ip), vehicle: other): 105 % of control

CCCCCCC(C)OB(OC(C)CCCCCC)OC(C)CCCCCC (stereo not drawn)
T/C [2]: 103 % of control | T/C [4]: 95 % of control | T/C [6]: 93 % of control

CC1NC(=O)OC12CCCCC2 (stereo not drawn)
T/C (dose: 100.0 mg/kg/injection, schedule: Q01DX001 (ip), vehicle: saline with Tween-80): 96 % of control | T/C (dose: 200.0 mg/kg/injection, schedule: Q01DX001 (ip), vehicle: saline with Tween-80): 92 % of control | T/C (dose: 400.0 mg/kg/injection, schedule: Q01DX001 (ip), vehicle: saline with Tween-80): 92 % of control

O=P(O)(O)c1cccc(Oc2ccccc2)c1
T/C (dose: 75.0 mg/kg/injection, schedule: Q01DX001 (ip), vehicle: saline): 100 % of control | T/C (dose: 150.0 mg/kg/injection, schedule: Q01DX001 (ip), vehicle: saline): 100 % of control

CCCCCCOC(CN(C)C)C(Cl)(Cl)Cl (stereo not drawn)
T/C [21]: 101 % of control | T/C [10]: 93 % of control | T/C [22]: 98 % of control | T/C [11]: 95 % of control | T/C [12]: 98 % of control

CCOC(=O)c1c(-c2ccc(OC)c(OC)c2OCc2ccccc2)c(C)c(C)[nH]c1=O
T/C [23]: 102 % of control | T/C (dose: 150.0 mg/kg/injection, schedule: Q01DX001 (ip), vehicle: carboxymethylcellulose (CMC)): 102 % of control | T/C (dose: 300.0 mg/kg/injection, schedule: Q01DX001 (ip), vehicle: carboxymethylcellulose (CMC)): 102 % of control

O=C1C=C(c2ccccc2)S(=O)(=O)C(c2ccccc2)=C1
T/C (dose: 37.5 mg/kg/injection, schedule: Q04DX002 (ip), vehicle: Klucel (hydroxypropylcellulose) (HPC)): 97 % of control | T/C [23]: 124 % of control | T/C (dose: 75.0 mg/kg/injection, schedule: Q04DX002 (ip), vehicle: Klucel (hydroxypropylcellulose) (HPC)): 108 % of control | T/C (dose: 150.0 mg/kg/injection, schedule: Q04DX002 (ip), vehicle: Klucel (hydroxypropylcellulose) (HPC)): 101 % of control

OCC(Cc1ccc(Cl)cc1)N1CCCCC1 (stereo not drawn)
T/C (dose: 100.0 mg/kg/injection, schedule: Q01DX001 (ip), vehicle: carboxymethylcellulose (CMC)): 96 % of control | T/C (dose: 200.0 mg/kg/injection, schedule: Q01DX001 (ip), vehicle: carboxymethylcellulose (CMC)): 100 % of control | T/C (dose: 400.0 mg/kg/injection, schedule: Q01DX001 (ip), vehicle: carboxymethylcellulose (CMC)): 89 % of control

CC(C)C(C(=O)O)N1C(=O)C2C3CCC(C3)C2C1=O (stereo not drawn)
T/C (dose: 25.0 mg/kg/injection, schedule: Q04DX003 (ip), vehicle: saline): 86 % of control | T/C (dose: 50.0 mg/kg/injection, schedule: Q04DX003 (ip), vehicle: saline): 93 % of control | T/C [10]: 89 % of control | T/C [9]: 96 % of control | T/C [11]: 103 % of control | T/C [12]: 98 % of control

CCOC(=O)CNc1cccc(Br)c1
T/C [13]: 107 % of control | T/C [14]: 100 % of control | T/C [15]: 103 % of control
